For assay [1], the target named is T1, SFRP-1 (Homo sapiens, UniProt Q8N474).
T1 sequence (Q8N474 32-314): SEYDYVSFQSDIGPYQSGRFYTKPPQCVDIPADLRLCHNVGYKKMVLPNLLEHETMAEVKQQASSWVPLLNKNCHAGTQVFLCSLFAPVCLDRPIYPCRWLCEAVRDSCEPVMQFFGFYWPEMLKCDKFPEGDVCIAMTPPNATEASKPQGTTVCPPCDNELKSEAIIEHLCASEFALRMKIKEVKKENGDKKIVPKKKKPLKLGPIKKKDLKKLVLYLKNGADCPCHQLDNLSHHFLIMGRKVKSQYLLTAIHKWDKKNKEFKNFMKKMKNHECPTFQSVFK
As to the kind of experiment: Fluorescence polarization binding assay (competitive displacement of a probe compound from SFRP-1).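 Note: test compound competes with a fluorescent probe held by SFRP-1, seen as a drop in probe anisotropy after incubation in darkness, with anisotropy as function of rising compound dose.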 The conditions noted are these: fluorescence anisotropy, 45 nM SFRP-1, 20 nM probe.

For assay [2], the target named is T1, SFRP-1. As to the kind of experiment: Cell-based assay for in vitro measurement of SFRP-1/SARP2 antagonist activity (U2OS cells co-transfected with 16x TCF-tk-Luciferase reporter, Wnt and hSFRP-1).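 Note: U2OS cells co-transfected with a TCF-tk luciferase reporter, a Wnt vector, hSFRP-1 or empty vector and CMV-βgal, luciferase luminescence read in cell lysates alongside βgal activity.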 The conditions noted are these: U2OS, single dose, luciferase reporter.
The mark [3] stands for this setting: read-out: Fold Induction with SFRP-1, Conc 15 μM, fold induction over SFRP-1 control, cells with SFRP-1.
The mark [4] stands for this setting: read-out: Fold Induction without SFRP-1, Conc 15 μM, cells without SFRP-1 (specificity control).

Structures are written as SMILES. Values joined by “and” are separate entries in the source; they are usually repeats but may differ in a detail not shown here. Equal entries are not always repeated. Where two headings read alike, the source gives them in different places.

As for `CC(C)c1ccc(S(=O)(=O)c2ccc(N3CCN(C)CC3)cc2)cc1S(=O)(=O)NCCC1CCOCC1` [Example 549, 2-isopropyl-5-{[4-(4-methylpiperazin-1-yl)phenyl]sulfonyl}-N-[2-(tetrahydro-2H-pyran-4-yl)ethyl]benzenesulfonamide], at SFRP-1 [1], the IC50 was 1.6 µM and 2.9 µM. The fold induction at 15 µM at SFRP-1 [2] (setting [3]) was 3.6; on SFRP-1 [2] (setting [4]), 1.5.
With `CCCc1ccc(S(=O)(=O)c2ccccc2)cc1S(=O)(=O)NCCc1ccccc1` [Example 550, N-(2-phenylethyl)-5-(phenylsulfonyl)-2-propylbenzenesulfonamide], the IC50 at SFRP-1 [1] came to 1.3 µM. For the same molecule, the fold induction at 15 µM on SFRP-1 [2] (setting [3]) is 2.9; on SFRP-1 [2] (setting [4]), 1.1.
In the case of `CCCc1ccc(S(=O)(=O)c2ccccc2)cc1S(=O)(=O)NCC1CCOCC1` [Example 552, 5-(Phenylsulfonyl)-2-propyl-N-(tetrahydro-2H-pyran-4-ylmethyl)benzenesulfonamide], the IC50 on SFRP-1 [1] turned out to be 1.2 µM. For the same molecule, the fold induction at 15 µM at SFRP-1 [2] (setting [3]) worked out at 2.4; at SFRP-1 [2] (setting [4]), 1.2.
The molecule `CCCc1ccc(S(=O)(=O)c2ccccc2)cc1S(=O)(=O)NCCC1CCOCC1` [Example 553, 5-(Phenylsulfonyl)-2-propyl-N-[2-(tetrahydro-2H-pyran-4-yl)ethyl]benzenesulfonamide] had an IC50 at SFRP-1 [1] of 3 µM. Besides, the fold induction at 15 µM at SFRP-1 [2] (setting [3]) stood at 2.5; at SFRP-1 [2] (setting [4]), 1.1.
The molecule `CCCc1ccc(S(=O)(=O)c2ccccc2)cc1S(=O)(=O)NC1CCCC1` [Example 554, N-Cyclopentyl-5-(phenylsulfonyl)-2-propylbenzenesulfonamide] returned an IC50 at SFRP-1 [1] of 1.7 µM. Moreover, the values for the fold induction at 15 µM on SFRP-1 [2] (setting [3]) and at SFRP-1 [2] (setting [4]) were 2.6 and 1.1, respectively.
In turn, `CCCc1ccc(S(=O)(=O)c2ccc(F)cc2)cc1S(=O)(=O)NCCc1ccccc1` [Example 559, 5-[(4-fluorophenyl)sulfonyl]-N-(2-phenylethyl)-2-propylbenzenesulfonamide] yielded an IC50 at SFRP-1 [1] of 1.2 µM. The results for the fold induction at 15 µM on SFRP-1 [2] (setting [3]) and at SFRP-1 [2] (setting [4]) were 2.3 and 1, respectively.
In the same order, the values of `CCCc1ccc(S(=O)(=O)c2ccc(F)cc2)cc1S(=O)(=O)NCC1CCOCC1` [Example 561, 5-[(4-Fluorophenyl)sulfonyl]-2-propyl-N-(tetrahydro-2H-pyran-4-ylmethyl)benzenesulfonamide] are 1.4 µM, 2.3 and 0.9.
Consider `CCCc1ccc(S(=O)(=O)c2ccc(F)cc2)cc1S(=O)(=O)NCCC1CCOCC1` [Example 562, 5-[(4-Fluorophenyl)sulfonyl]-2-propyl-N-[2-(tetrahydro-2H-pyran-4-yl)ethyl]benzenesulfonamide], for which, on SFRP-1 [1], the IC50 amounted to 1.6 µM. For the same molecule, the fold induction at 15 µM was 3.3 on SFRP-1 [2] (setting [3]) and 1.2 on SFRP-1 [2] (setting [4]).
Take `CCCc1ccc(S(=O)(=O)c2ccc(F)cc2)cc1S(=O)(=O)NC1CCCC1` [Example 563, N-Cyclopentyl-5-[(4-fluorophenyl)sulfonyl]-2-propylbenzenesulfonamide]: the IC50 at SFRP-1 [1] is 3 µM. The fold induction at 15 µM turned out to be 2.8 on SFRP-1 [2] (setting [3]) and 1.2 on SFRP-1 [2] (setting [4]).
On the same counts, the results for `CCCc1ccc(S(=O)(=O)c2ccc(F)cc2)cc1S(=O)(=O)NCCCn1ccnc1` [Example 565, 5-[(4-Fluorophenyl)sulfonyl]-N-[3-(1H-imidazol-1-yl)propyl]-2-propylbenzenesulfonamide] are 0.5 µM, 4 and 1.2.
On to `CNc1ccc(S(=O)(=O)c2ccc(C(C)C)c(S(=O)(=O)NC3CCNCC3)c2)cc1` [Example 568, 2-isopropyl-5-{[4-(methylamino)phenyl]sulfonyl}-N-piperidin-4-ylbenzenesulfonamide], for which the concentration for half-maximal inhibition (IC50) at SFRP-1 [1] came to 0.5 µM. Besides, the fold induction at 15 µM came to 3.8 at SFRP-1 [2] (setting [3]) and 1.1 at SFRP-1 [2] (setting [4]).

Values taken from patent US20060276464A1, “Diarylsulfone sulfonamides and use thereof” (Wyeth, priority 2005, published 2006).
